# Experimental data taken from patent publication US20020146823A1, “Method for promoting hematopoietic and mesenchymal cell proliferation and differentiation” (The University of Southern California, priority 1997, published 2002).
# How the values were obtained:
# human PBMC = experiment: Proliferative response of human lymphocytes (3H-thymidine incorporation); format: cell-based; conditions: absence of mitogen
# Method: Upon stimulation of lymphocytes with mitogen or antigen, these cells undergo blastogenesis and proliferation. In the absence of such stimuli, proliferation is seldom observed. One method to measure cellular proliferation in a short term assay is via measurement of the amount of the nucleotide thymidine that is incorporated into newly synthesized DNA. The effect of All on the proliferation of human PBMC in the presence and absence of pokeweed mitogen (“PWM”) was assessed.
# Human PBMC were collected from normal volunteers and isolated via Ficoll Hypaque (Sigma Chemical, St. Louis) density centrifugation. After isolation of the buffy coat, the cells were washed 3× to remove the Ficoll Hypaque, counted in trypan blue (0.01%) and resuspended at a concentration of 1×10^6 cells/ml in RPMI 1640 containing 10% fetal calf serum and antibiotics. A 100 μl aliquot of cells was added to each well. Thereafter, various concentrations (0.1 to 1000 μg/ml final concentration) of AII in RPMI 1640 containing 10% FCS and antibiotics were added to various wells in triplicate. To the appropriate wells, PWM (20 μg/ml final concentration) was added. These plates were incubated at 37° C. in 5% CO2 for 48 hours. […] These filters were dried, placed in scintillation fluid and the amount of thymidine incorporated was determined by beta counting.
# [1] = tested on: Rat Peritoneal Macrophages; experiment: Phagocytic capability of rat peritoneal macrophages (opsonized yeast ingestion); format: cell-based, Sprague Dawley rats
# Method: Resident peritoneal macrophages have very little phagocytic activity. Exposure of macrophages to inflammatory or activating agents will increase this macrophage function. Resident peritoneal macrophages were harvested from C57B1/6 mice or Sprague Dawley rats and resuspended at a concentration of 1×10^6 cells/ml in phosphate buffered saline (PBS). Five separate 0.5 ml cell aliquots were placed on a glass coverslip in a 35 mm petri dish. Prior to incubation, either 0.5 ml of PBS, AII, or AII analogues or fragments at between 1-1000 ug/ml final concentration was added to the individual cover slips. The dishes containing the cover slips were then incubated at 37° C. for 4 hours, after which the cover slips were washed 3 to 6 times with PBS. Opsonized yeast particles (Sigma Chemical Co.) (yeast opsonized with adult serum from the same species as that under study) were added to the cover slips and incubated for 2 hours, after which the cover slips were again washed with PBS and inverted onto a glass slide. The number of macrophages that ingested yeast and the number of yeast per macrophage ingested was then determined microscopically. At least 100 macrophages per coverslip were counted. The data from this study are summarized in Tables 3 and 4 and FIGS. 1 and 2.
# rat MSC = experiment: Rat mesenchymal stem cell proliferation in bone marrow cultures; format: cell-based, Sprague Dawley rats; conditions: 1 to 100 μg/ml
# Method: These studies were conducted to determine the effect that AII would have on the proliferation of MSC. Bone marrow cells were harvested from the femur and tibia of female Sprague Dawley rats by flushing the bones with Dulbecco's Minimal Essential Medium-High Glucose (“DMEM-HG”) with a syringe and an 18 gauge needle. These cells were cultured in 24 well plates at 5×10^3 cells/mm^2 in DMEM-HG containing selected lots of fetal calf serum (FCS) and antibiotics (complete medium) at 37° C. incubator containing 5% CO2 in air. Twenty-four hours after the initiation of the cultures the medium and nonadherent cells were aspirated and fresh medium was added. To each of these several wells, complete medium with (1 to 100 μg/ml) or without AII was added. The migration of cells from the clones and their proliferation was followed by microscopic examination. Every 4 days the old medium was removed and fresh medium was added to the cultures. These studies were conducted to determine the effect that inclusion of All analogues and fragments in the cell culture of MSC would have on the proliferation of these cells. Bone marrow cells were harvested from the femur and tibia of female Sprague Dawley rats by flushing the bones with Dulbecco's Minimal Essential Medium-High Glucose (“DMEM-HG”) with a syringe and an 18 gauge needle. […]
substance,measurement,setting,value
"Asp-Arg-Val-Tyr-Ile-His-Pro-Phe (DRVYIHPF; printed: Asp-Arg-Val-Tyr-Ile-His-Pro-Phe) [AII, octapeptide present in humans and other species; known pressor agent, commercially available]",thymidine incorporation,human PBMC,no increase
same,#/Cell,[1]; peptide 100 μg/ml,1.14
same,% w/Yeast,[1]; peptide 100 μg/ml,35.7%
same,Number of Macrophages with Yeast (Yeast Number) 0,[1]; peptide 100 μg/ml,90
same,Number of Macrophages with Yeast (Yeast Number) 1-3,[1]; peptide 100 μg/ml,30
same,Number of Macrophages with Yeast (Yeast Number) ≧7,[1]; peptide 100 μg/ml,0
same,#/Cell,[1]; peptide 1000 μg/ml,2.86
same,% w/Yeast,[1]; peptide 1000 μg/ml,70.4%
same,Number of Macrophages with Yeast (Yeast Number) 0,[1]; peptide 1000 μg/ml,50
same,Number of Macrophages with Yeast (Yeast Number) 1-3,[1]; peptide 1000 μg/ml,54
same,Number of Macrophages with Yeast (Yeast Number) 4-6,[1]; peptide 1000 μg/ml,40
same,Number of Macrophages with Yeast (Yeast Number) ≧7,[1]; peptide 1000 μg/ml,25
same,number of MSC,rat MSC; all time points examined,increase in the number of MSC in a concentration dependent manner
same,number of sites from which MSC were migrating (CFU) and size (number of cells) of colonies formed,rat MSC; complete medium with serum,significantly increased
